Common to all, as to type: cell-based
For test [1], the system named is SU-DHL-4 cells (diffuse large B-cell lymphoma). The test is described as follows: Cell death inducing effect on SU-DHL-4 cells, trypan blue staining. The conditions noted are these: SU-DHL-4 (DLBCL), cell viability. As to the method:
SU-DHL-4 cells (diffuse large B-cell lymphoma) were cultured under 5% CO2 at 37° C.
The culture medium used RPMI-1640 medium with 100 μg/mL penicillin, 100 U/mL streptomycin and fetal bovine serum. SU-DHL-4 cells were seeded into 96-well plates and incubated with each concentration of the compounds was added, and cell viability was determined by the trypan blue staining.
(§1) For controls, only 0.5% DMSO (diluted in PBS) used to dissolve the compounds was added. For each concentration, each bar line is indicated by an arrow with the sign “n, a, 1, 2, 3, 4, 5, 6, 7, 8, 9, 10, 11, 12” from left to right. The “1, 3, 5, 7, 9, 11” are omitted from the graph, but the sign “1” shall be indicated by an arrow between the signs “a” and “2”, the sign “3” between the signs “2” and “4”, and other odd numbers shall likewise be indicated by arrows between even numbers before and after.
(§2) The sign “n” is the norathyriol (formula (n)) administration group, the sign “a” is the mangiferin 8a (formula (a)) administration group, the sign “1” is the yk-7 (formula (1)) administration group, the sign “2” is the yk-8-1 (formula (2)) administration group, the sign “3” is the yk-8-3 (formula (3)) administration group, the sign “4” is the M7 (formula (4)) administration group, the sign “5” is the M9 (formula (5)) administration group, the sign “6” is the M11 (formula (6)) administration group, the sign “7” is the M12 (formula (7)) administration group, the sign “8” is the M14 (formula (8)) administration group, the sign “9” is the M15 (formula (9)) administration group, the sign “10” is the M16 (formula (10)) administration group, the sign “11” is the M18 (formula (11)) administration group, the sign “12” is the M19 (formula (12)) administration group, respectively. The IC50 values for each compound is also listed in the upper right corner of the figure.

A further test deals with phospho-IKK. The test is described as follows: Immunoblotting of phospho-IKK in KMS-28BM cells. The conditions noted are these: 72 h, vs control, same concentrations as for phospho-NIK (0.005-100 μM). As to the method: (§3) Immunoblotting was performed on KMS-28BM cells to investigate the inhibitory effect of each compound administration on NIK inhibition and the activation of IKK, NF-κB p52, and NF-κB p65, which are downstream signals of NIK. As a result, inhibition of NIK activation, inhibition of IKK activity, and inhibition of nuclear translocation of NF-κB p52 and NF-κB p65 were observed (FIG. 15 and FIG. 16).
(§4) As a control, compounds untreated KMS-28BM cells were seeded in 150 cm^2 flasks and incubated for 72 h at 37° C. and 5% CO2. KMS-28BM cells were seeded into 150 cm^2 flasks and pre-cultured for 24 h. After incubation, KMS-28BM cells were treated with […], 1 μM norathyriol, 0.5 μM M7 (formula (4)), 1 μM M8 (mangiferin 8a: listed in duplicate), 0.2 μM M9 (formula (5)), 5 μM yk-7 (formula (1)), 0.5 μM yk-8-3 (formula (3)) and 100 μM yk-8-1 (formula (2)) at final concentrations, and incubated for 72 h at 37° C. and 5% CO2. In addition, KMS-28BM cells were also treated with 0.5 μM M19 (formula (12)), 0.5 μM M18 (formula (11)), 0.005 μM M16 (formula (10)), […] (formula (9)), 0.005 μM M14 (formula (8)), 0.05 μM M12 (formula (7)) and […] (formula (6)) at the final concentrations, and incubated for 72 h at 37° C. and 5% CO2. Proteins were extracted from these cell suspensions with cell lysate and used as samples.
(§5) The nucleus and cytoplasmic substrate were separated from the cells using the ProteoExtract (registered trademark) Subcellular Proteome Extraction Kit from Merck Ltd. to extract the cytoplasmic and nuclear fractions.
(§6) After SDS-PAGE, each sample was transferred to a PVDF membrane and examined using anti-phospho-NIK, anti-NIK, anti-phospho-IKK, anti-IKK, anti-P-actin, anti-NF-κB p52 and anti-NF-κB p65 antibody, and anti-Lamin antibody.
(§7) The antibody species is indicated in the vertical direction. Specifically, for anti-phospho-NIK antibody, “Phospho-NIK” was used, for anti-NIK antibody, “NIK” was used, for anti-phospho-IKK antibody, “Phospho-IKK” was used, for anti-IKK antibody, “IKK” was used, for anti-p-actin antibody, “p-actin” was used, for anti-NF-κB p52 antibody, “NF-κB p52 nuclear” was used, for anti-NF-κB p65 antibody, “NF-κB p65 nuclear” was used, and for anti-Lamin antibody, “Lamin” was used.

For test [2], the system named is CCRF-SB cells (acute lymphocytic leukemia cell line). The test is described as follows: Cell death inducing effect on CCRF-SB cells, trypan blue staining. To be noted: CCRF-SB (acute lymphoblastic leukemia), cell viability. As to the method: CCRF-SB cells (acute lymphocytic leukemia cell line) were cultured under 5% CO2 at 37° C. The culture medium used RPMI-1640 medium with 100 μg/mL penicillin, 100 U/mL streptomycin and fetal bovine serum. CCRF-SB cells were seeded into 96-well plates and incubated with each concentration of the compounds was added, and cell viability was determined by the trypan blue staining.
as §1, §2

The target in a further test is T1, phospho-NIK (Homo sapiens, UniProt Q99558).
T1 construct: Proteins were extracted from these cell suspensions with cell lysate and used as samples; endogenous in cells; host or cells: KMS-28BM (myeloma)
T1 sequence (Q99558 whole entry): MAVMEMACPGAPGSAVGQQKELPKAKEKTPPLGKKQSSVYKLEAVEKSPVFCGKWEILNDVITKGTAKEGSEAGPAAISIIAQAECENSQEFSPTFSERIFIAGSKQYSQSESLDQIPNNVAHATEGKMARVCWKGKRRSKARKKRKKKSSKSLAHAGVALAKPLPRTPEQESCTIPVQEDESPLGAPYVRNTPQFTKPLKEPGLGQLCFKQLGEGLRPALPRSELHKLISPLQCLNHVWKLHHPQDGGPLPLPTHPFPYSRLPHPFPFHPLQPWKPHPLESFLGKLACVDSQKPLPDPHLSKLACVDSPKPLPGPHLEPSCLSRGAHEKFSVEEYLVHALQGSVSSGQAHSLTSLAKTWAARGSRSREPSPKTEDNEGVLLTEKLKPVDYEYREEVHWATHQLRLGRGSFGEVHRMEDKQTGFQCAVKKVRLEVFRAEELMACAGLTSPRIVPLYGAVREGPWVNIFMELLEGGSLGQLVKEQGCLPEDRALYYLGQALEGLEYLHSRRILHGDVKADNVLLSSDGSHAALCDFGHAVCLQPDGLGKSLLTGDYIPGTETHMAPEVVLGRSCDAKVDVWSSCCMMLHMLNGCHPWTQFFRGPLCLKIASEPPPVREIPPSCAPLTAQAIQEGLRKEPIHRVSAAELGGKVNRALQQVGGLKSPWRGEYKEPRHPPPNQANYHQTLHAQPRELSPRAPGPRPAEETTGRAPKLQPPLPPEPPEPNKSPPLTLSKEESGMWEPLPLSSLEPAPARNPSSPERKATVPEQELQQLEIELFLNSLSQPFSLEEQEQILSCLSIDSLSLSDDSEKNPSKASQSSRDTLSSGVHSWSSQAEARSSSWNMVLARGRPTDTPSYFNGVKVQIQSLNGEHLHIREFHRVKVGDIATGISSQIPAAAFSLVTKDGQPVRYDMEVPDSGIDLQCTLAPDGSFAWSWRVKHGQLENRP
The test is described as follows: Immunoblotting of phospho-NIK in KMS-28BM cells. The conditions noted are these: 72 h, vs control, 1 μM mangiferin 8a/M8, 1 μM norathyriol, 0.5 μM M7, 0.2 μM M9, 5 μM yk-7, 0.5 μM yk-8-3, 100 μM yk-8-1, 0.5 μM M19, M18, M11, 0.005 μM M16, M15, M14, 0.05 μM M12. As to the method: as §3, §4, §5, §6, §7

The next test relates to CD138. The test is described as follows: CD138 expression in L363 cells, flow cytometry. To be noted: 10 days, concentration lower than the IC50 (0.005-50 μM), compared to the positive control. As to the method: As a control, compounds untreated L363 cells were seeded in 75 cm^2 flasks and incubated for 10 days at 37° C. and 5% CO2. L363 cells were seeded into 75 cm^2 flasks and pre-cultured for 4 h. After incubation, L363 cells were treated with 0.1 μM M7, 0.05 μM M9, 0.1 μM yk-7, 0.1 μM yk-8-3, 50 μM yk-8-1, 0.1 μM M11, 0.01 μM M12, 0.005 μM M14, 0.005 μM M15, 0.005 μM M16, 1 μM M18, and 1 μM M19 at final concentrations, and incubated for 10 days at 37° C. and 5% CO2. This added amount is a concentration lower than the IC50 of the above compounds for L363 cells. After 10 days of incubation, cells were stained with anti-CD138 antibody, a marker of multiple myeloma grade, and CD138 expression was measured using BD LSRFortessa.
Results are shown in FIG. 25, FIG. 26, FIG. 27 and FIG. 28. The horizontal axis represents the expression level of CD138 and the vertical axis represents the number of cells.

As to “1,2′,3′,4′,6-penta-O-propionylmangiferin [Compound 8a, reference compound]”, the values for the half-maximal inhibitory concentration (IC50) in test [1] and in test [2] were 8060 nM and 7420 nM, respectively. In addition, the “phospho-IKK band density (anti-phospho-IKK antibody)” value (“phospho-IKK band density” below) in the test with phospho-IKK is given as “decrease in band density”. The “phospho-NIK band density (anti-phospho-NIK antibody)” value (“phospho-NIK band density” for short) at phospho-NIK was “decrease in band density”.
Consider `CCC(=O)OC[C@H]1O[C@@H](c2c(OC(=O)CC)cc3oc4cc(OC(=O)CC)c(OC(=O)CC)cc4c(=O)c3c2OC(=O)CC)[C@H](OC(=O)CC)[C@@H](OC(=O)CC)[C@@H]1OC(=O)CC` [Compound M7, 1,3,2′,3′,4′,6,6′,7-octa-O-propionylmangiferin], for which the results for the IC50 in test [1] (Homo sapiens) and in test [2] (Homo sapiens) were 771 nM and 6760 nM, respectively. Moreover, the “phospho-IKK band density” value in the test with phospho-IKK is reported as “decrease in band density”. For the same compound, the CD138 expression levels entry in the test on CD138 was “markedly reduced”. In addition, the “phospho-NIK band density” value on phospho-NIK is given as “decrease in band density”.
With `CCC(=O)OC[C@H]1O[C@@H](c2c(O)cc3oc4cc(O)c(O)cc4c(=O)c3c2O)[C@H](OC(=O)CC)[C@@H](OC(=O)CC)[C@@H]1OC(=O)CC` [Compound M9, 2′,3′,4′,6′-tetra-O-propionylmangiferin], the IC50 came out at 86 nM in test [1] (Homo sapiens) and 1620 nM in test [2] (Homo sapiens). Besides, the “phospho-IKK band density” value with phospho-IKK was “decrease in band density”. In addition, the CD138 expression levels entry with CD138 is recorded as “markedly reduced”. Moreover, the “phospho-NIK band density” value at phospho-NIK was “decrease in band density”.
Take `CCCC(=O)OC[C@H]1O[C@@H](c2c(OC(=O)CCC)cc3oc4cc(OC(=O)CCC)c(OC(=O)CCC)cc4c(=O)c3c2OC(=O)CCC)[C@H](OC(=O)CCC)[C@@H](OC(=O)CCC)[C@@H]1OC(=O)CCC` [Compound M11, 1,3,2′,3′,4′,6,6′,7-octa-O-butyrylmangiferin]: the concentration for half-maximal inhibition (IC50) is 415 nM in test [1] and 7820 nM in test [2]. Moreover, in the test with phospho-IKK, the “phospho-IKK band density” value is “decrease in band density”. In addition, the CD138 expression levels result in the test on CD138 is given as “markedly reduced”. The “phospho-NIK band density” value on phospho-NIK was “decrease in band density”.
Take `CCCC(=O)OC[C@H]1O[C@@H](c2c(O)cc3oc4cc(O)c(O)cc4c(=O)c3c2OC(=O)CCC)[C@H](OC(=O)CCC)[C@@H](OC(=O)CCC)[C@@H]1OC(=O)CCC` [Compound M12, 1,2′,3′,4′,6-penta-O-butyrylmangiferin]: the figures for the IC50 in test [1] (Homo sapiens) and in test [2] (Homo sapiens) were 5 nM and 954 nM, respectively. Besides, the “phospho-IKK band density” value in the test with phospho-IKK was “decrease in band density”. Besides, in the test on CD138, the CD138 expression levels result is on record as “markedly reduced”. The “phospho-NIK band density” value at phospho-NIK is reported as “decrease in band density”.
Turning to `CCCC(=O)OC[C@H]1O[C@@H](c2c(O)cc3oc4cc(O)c(O)cc4c(=O)c3c2O)[C@H](OC(=O)CCC)[C@@H](OC(=O)CCC)[C@@H]1OC(=O)CCC` [Compound M14, 2′,3′,4′,6′-tetra-O-butyrylmangiferin], the 50% inhibitory concentration (IC50) in test [1] (Homo sapiens) amounted to 2 nM; in test [2] (Homo sapiens) it was 287 nM. Besides, the “phospho-IKK band density” value in the test with phospho-IKK is “decrease in band density”. For the same compound, the CD138 expression levels result in the test with CD138 is recorded as “markedly reduced”. Also, the “phospho-NIK band density” value at phospho-NIK is on record as “decrease in band density”.
For `CC(C)(C)C(=O)OC[C@H]1O[C@@H](c2c(O)cc3oc4cc(O)c(O)cc4c(=O)c3c2O)[C@H](OC(=O)C(C)(C)C)[C@@H](OC(=O)C(C)(C)C)[C@@H]1OC(=O)C(C)(C)C` [Compound M15, 2′,3′,4′,6′-tetra-O-pivaloylmangiferin], the half-inhibitory concentration (IC50) came out at 2 nM in test [1] (Homo sapiens) and 357 nM in test [2] (Homo sapiens). Moreover, in the test with phospho-IKK, the “phospho-IKK band density” value is recorded as “decrease in band density”. The CD138 expression levels entry in the test on CD138 is “markedly reduced”. Moreover, the “phospho-NIK band density” value on phospho-NIK is listed as “decrease in band density”.
`CCCCO[C@@H]1[C@@H](OCCCC)[C@H](c2c(O)cc3oc4cc(O)c(O)cc4c(=O)c3c2O)O[C@H](COC(=O)CCC)[C@H]1OC(=O)CCC` [Compound M16, 2′,3′-di-O-butyl-4′,6′-di-O-butyrylmangiferin]: the IC50 in test [1] (Homo sapiens) turned out to be 11 nM; in test [2] (Homo sapiens), 198 nM. Further, in the test with phospho-IKK, the “phospho-IKK band density” value is “decrease in band density”. For the same compound, the CD138 expression levels result in the test on CD138 was “markedly reduced”. For the same compound, the “phospho-NIK band density” value at phospho-NIK was “decrease in band density”.
In the case of `O=c1c2cc(O)c(O)cc2oc2cc(O)cc(OCCO)c12` [Compound M18, 3,6,7-trihydroxy-1-(2-hydroxyethoxy)-9H-xanthen-9-one], the concentration for half-maximal inhibition (IC50) worked out at 9580 nM in test [1] (Homo sapiens) and 9180 nM in test [2] (Homo sapiens). For the same compound, the “phospho-IKK band density” value with phospho-IKK was “decrease in band density”. In addition, the CD138 expression levels result in the test with CD138 is “markedly reduced”. For the same compound, the “phospho-NIK band density” value at phospho-NIK is reported as “decrease in band density”.
Turning to `O=c1c2cc(O)c(O)cc2oc2cc(O)cc(O)c12` [norathyriol, reference compound], the half-maximal inhibitory concentration (IC50) in test [1] (Homo sapiens) was 18400 nM; in test [2] (Homo sapiens) it was 12300 nM. Besides, the “phospho-IKK band density” value with phospho-IKK is “decrease in band density”. Besides, the “phospho-NIK band density” value on phospho-NIK is recorded as “decrease in band density”.

The values are drawn from US20260200903A1, “PHARMACEUTICAL COMPOSITION FOR AMELIORATING MALIGNANT DISEASES” (KINKI UNIVERSITY, priority 2020, published 2026).
